Species on record: Rattus norvegicus
Experiment: DrugMatrix - Regimen: Daily Repeat
Type: toxicity, organism-based, Sprague-Dawley
Set-up: regimen Daily Repeat, gender Male, age 6-8 weeks
Conditions: in vivo, po, route oral GAVAGE, […]; for ABSOLUTE BASOPHIL / ABSOLUTE EOSINOPHIL / ABSOLUTE LYMPHOCYTE / ABSOLUTE SEGMENTED NEUTROPHIL / BASOPHIL / EOSINOPHIL / ERYTHROCYTE COUNT / HEMOGLOBIN / LEUKOCYTE COUNT / LYMPHOCYTE / MEAN CORPUSCULAR HEMOGLOBIN / MEAN CORPUSCULAR HEMOGLOBIN CONCENTRATION / MEAN CORPUSCULAR VOLUME / MONOCYTE / NEUTROPHIL / NUCLEATED RED BLOOD CELLS / PLATELET COUNT: tissue Blood; for ALANINE AMINOTRANSFERASE / ALBUMIN / ALKALINE PHOSPHATASE / ASPARTATE AMINOTRANSFERASE / BLOOD UREA NITROGEN / CARBON DIOXIDE / CHLORIDE / CHOLESTEROL / CREATINE PHOSPHOKINASE / CREATININE / GLUCOSE / LACTATE DEHYDROGENASE / LIPASE / PHOSPHORUS / POTASSIUM / SODIUM / TOTAL BILIRUBIN / URIC ACID: tissue Plasma
[1] = 20 mg/kg, 72 h, dose level Low, time 3 day
[2] = 20 mg/kg, 120 h, dose level Low, time 5 day
[3] = 600 mg/kg, 72 h, dose level High, time 3 day
[4] = 600 mg/kg, 120 h, dose level High, time 5 day

SMILES: CCCN(CCC)S(=O)(=O)c1ccc(C(=O)O)cc1 [PROBENECID]
- ABSOLUTE BASOPHIL [1]: 0 CELLS/uL
- ABSOLUTE EOSINOPHIL [1]: 143 CELLS/uL
- ABSOLUTE LYMPHOCYTE [1]: 13997.67 CELLS/uL
- ABSOLUTE SEGMENTED NEUTROPHIL [1]: 1155.67 CELLS/uL
- BASOPHIL [1]: 0%
- EOSINOPHIL [1]: 1%
- ERYTHROCYTE COUNT [1]: 5.57 x10E6/uL
- HEMOGLOBIN [1]: 13.7 G/DL
- LEUKOCYTE COUNT [1]: 15.43 x10E3/uL
- LYMPHOCYTE [1]: 90.33%
- MEAN CORPUSCULAR HEMOGLOBIN [1]: 24.67 pg
- MEAN CORPUSCULAR HEMOGLOBIN CONCENTRATION [1]: 39.3 G/DL
- MEAN CORPUSCULAR VOLUME [1]: 62.8 fL
- MONOCYTE [1]: 1%
- NEUTROPHIL [1]: 7.67%
- NUCLEATED RED BLOOD CELLS [1]: 0 /100WBC
- PLATELET COUNT [1]: 1224.33 x10E3/uL
- ALANINE AMINOTRANSFERASE [1]: 70 u/L
- ALBUMIN [1]: 4 G/DL
- ALKALINE PHOSPHATASE [1]: 531.67 u/L
- ASPARTATE AMINOTRANSFERASE [1]: 87.67 u/L
- BLOOD UREA NITROGEN [1]: 11 mg/dL
- CARBON DIOXIDE [1]: 33.67 mmol/L
- CHLORIDE [1]: 100.67 MEQ/L
- CHOLESTEROL [1]: 81 mg/dL
- CREATINE PHOSPHOKINASE [1]: 196.67 u/L
- CREATININE [1]: 0.13 mg/dL
- GLUCOSE [1]: 157.33 mg/dL
- LACTATE DEHYDROGENASE [1]: 142.33 u/L
- LIPASE [1]: 10.67 u/L
- PHOSPHORUS [1]: 10.83 mg/dL
- POTASSIUM [1]: 6.5 MEQ/L
- SODIUM [1]: 141.87 MEQ/L
- TOTAL BILIRUBIN [1]: 0.13 mg/dL
- URIC ACID [1]: 1.4 mg/dL
- ABSOLUTE BASOPHIL [2]: 0 CELLS/uL
- ABSOLUTE EOSINOPHIL [2]: 118.67 CELLS/uL
- ABSOLUTE LYMPHOCYTE [2]: 12848.33 CELLS/uL
- ABSOLUTE SEGMENTED NEUTROPHIL [2]: 894.33 CELLS/uL
- BASOPHIL [2]: 0%
- EOSINOPHIL [2]: 0.67%
- ERYTHROCYTE COUNT [2]: 5.43 x10E6/uL
- HEMOGLOBIN [2]: 13.5 G/DL
- LEUKOCYTE COUNT [2]: 14.13 x10E3/uL
- LYMPHOCYTE [2]: 91%
- MEAN CORPUSCULAR HEMOGLOBIN [2]: 25.03 pg
- MEAN CORPUSCULAR HEMOGLOBIN CONCENTRATION [2]: 39.73 G/DL
- MEAN CORPUSCULAR VOLUME [2]: 62.93 fL
- MONOCYTE [2]: 2%
- NEUTROPHIL [2]: 6.33%
- NUCLEATED RED BLOOD CELLS [2]: 0 /100WBC
- PLATELET COUNT [2]: 1072.33 x10E3/uL
- ALANINE AMINOTRANSFERASE [2]: 70.67 u/L
- ALBUMIN [2]: 3.97 G/DL
- ALKALINE PHOSPHATASE [2]: 404.33 u/L
- ASPARTATE AMINOTRANSFERASE [2]: 114.67 u/L
- BLOOD UREA NITROGEN [2]: 13.67 mg/dL
- CARBON DIOXIDE [2]: 29.67 mmol/L
- CHLORIDE [2]: 102 MEQ/L
- CHOLESTEROL [2]: 63.33 mg/dL
- CREATINE PHOSPHOKINASE [2]: 910.33 u/L
- CREATININE [2]: 0.19 mg/dL
- GLUCOSE [2]: 178 mg/dL
- LACTATE DEHYDROGENASE [2]: 364 u/L
- LIPASE [2]: 10.33 u/L
- PHOSPHORUS [2]: 11.13 mg/dL
- POTASSIUM [2]: 6.49 MEQ/L
- SODIUM [2]: 141.5 MEQ/L
- TOTAL BILIRUBIN [2]: 0.23 mg/dL
- URIC ACID [2]: 1.67 mg/dL
- ABSOLUTE BASOPHIL [3]: 0 CELLS/uL
- ABSOLUTE EOSINOPHIL [3]: 106 CELLS/uL
- ABSOLUTE LYMPHOCYTE [3]: 14409.67 CELLS/uL
- ABSOLUTE SEGMENTED NEUTROPHIL [3]: 2126 CELLS/uL
- BASOPHIL [3]: 0%
- EOSINOPHIL [3]: 0.67%
- ERYTHROCYTE COUNT [3]: 5.2 x10E6/uL
- HEMOGLOBIN [3]: 13.4 G/DL
- LEUKOCYTE COUNT [3]: 16.7 x10E3/uL
- LYMPHOCYTE [3]: 86.33%
- MEAN CORPUSCULAR HEMOGLOBIN [3]: 25.73 pg
- MEAN CORPUSCULAR HEMOGLOBIN CONCENTRATION [3]: 40.6 G/DL
- MEAN CORPUSCULAR VOLUME [3]: 63.43 fL
- MONOCYTE [3]: 0.33%
- NEUTROPHIL [3]: 12.67%
- NUCLEATED RED BLOOD CELLS [3]: 0.33 /100WBC
- PLATELET COUNT [3]: 1182.33 x10E3/uL
- ALANINE AMINOTRANSFERASE [3]: 83.67 u/L
- ALBUMIN [3]: 3.93 G/DL
- ALKALINE PHOSPHATASE [3]: 534.33 u/L
- ASPARTATE AMINOTRANSFERASE [3]: 87 u/L
- BLOOD UREA NITROGEN [3]: 11 mg/dL
- CARBON DIOXIDE [3]: 27.67 mmol/L
- CHLORIDE [3]: 99.67 MEQ/L
- CHOLESTEROL [3]: 58 mg/dL
- CREATINE PHOSPHOKINASE [3]: 599.67 u/L
- CREATININE [3]: 0.18 mg/dL
- GLUCOSE [3]: 155.67 mg/dL
- LACTATE DEHYDROGENASE [3]: 259.33 u/L
- LIPASE [3]: 10.33 u/L
- PHOSPHORUS [3]: 10.97 mg/dL
- POTASSIUM [3]: 6.4 MEQ/L
- SODIUM [3]: 139.6 MEQ/L
- TOTAL BILIRUBIN [3]: 0.27 mg/dL
- URIC ACID [3]: 1.33 mg/dL
- ABSOLUTE BASOPHIL [4]: 0 CELLS/uL
- ABSOLUTE EOSINOPHIL [4]: 58.67 CELLS/uL
- ABSOLUTE LYMPHOCYTE [4]: 15278 CELLS/uL
- ABSOLUTE SEGMENTED NEUTROPHIL [4]: 1476.33 CELLS/uL
- BASOPHIL [4]: 0%
- EOSINOPHIL [4]: 0.33%
- ERYTHROCYTE COUNT [4]: 6 x10E6/uL
- HEMOGLOBIN [4]: 14.33 G/DL
- LEUKOCYTE COUNT [4]: 16.87 x10E3/uL
- LYMPHOCYTE [4]: 90.67%
- MEAN CORPUSCULAR HEMOGLOBIN [4]: 23.93 pg
- MEAN CORPUSCULAR HEMOGLOBIN CONCENTRATION [4]: 39.6 G/DL
- MEAN CORPUSCULAR VOLUME [4]: 60.4 fL
- MONOCYTE [4]: 0.33%
- NEUTROPHIL [4]: 8.67%
- NUCLEATED RED BLOOD CELLS [4]: 0 /100WBC
- PLATELET COUNT [4]: 1128.33 x10E3/uL
- ALANINE AMINOTRANSFERASE [4]: 55.67 u/L
- ALBUMIN [4]: 4.37 G/DL
- ALKALINE PHOSPHATASE [4]: 404.67 u/L
- ASPARTATE AMINOTRANSFERASE [4]: 96.33 u/L
- BLOOD UREA NITROGEN [4]: 20.33 mg/dL
- CARBON DIOXIDE [4]: 31 mmol/L
- CHLORIDE [4]: 101.67 MEQ/L
- CHOLESTEROL [4]: 55.33 mg/dL
- CREATINE PHOSPHOKINASE [4]: 902 u/L
- CREATININE [4]: 0.25 mg/dL
- GLUCOSE [4]: 169 mg/dL
- LACTATE DEHYDROGENASE [4]: 213.67 u/L
- LIPASE [4]: 10 u/L
- PHOSPHORUS [4]: 10.3 mg/dL
- POTASSIUM [4]: 5.85 MEQ/L
- SODIUM [4]: 142.7 MEQ/L
- TOTAL BILIRUBIN [4]: 0.27 mg/dL
- URIC ACID [4]: 1.8 mg/dL

— ChEMBL document CHEMBL3885881, “DrugMatrix”
